Measurements: patent US7029680B1, “Delivery of immunogenic molecules vis HBsAg particles” (Yissum Research Development Company of the Hebrew …, priority 1998, dated 2006)

Columns and labels:
OVA = test: Anti-OVA humoral (serum antibody) response after immunization; type: in vivo; conditions: F1 (H-2d/b) mice, FIG. 4D
Description: (§1) OVA/HBsAg particles, prepared as described above, were isolated, washed, and adjusted to the appropriate concentration for immunization. The following compositions were injected into F1 (H-2d/b) mice, each in 50 μl PBS (phosphate buffered saline): (a) 1 μg HBsAg particles (without adjuvants); (b) 100 μg native OVA; and (c) 1 μg HBsAg/OVA, as described in Section A above.
(§2) For evaluation of the CTL response, spleen or lymph nodes cells, obtained from immunized mice seven days to five weeks post-vaccination, were specifically restimulated in vitro for five days with syngeneic, irradiated OVA- or HBsAg-peptide-pulsed tumor cells. (The latter cells had been incubated in vitro with the recombinant HBsAg particles for 2 hours at 37° C.) The cells were harvested and tested in a 4-hour ^51Cr release cytolytic assay against antigen-bearing and non-antigen-bearing syngeneic targets. Lysis of cells specific for the HBsAg S protein (P815/S), or for OVA (EG7), was compared to that for nonspecific cells (P815 or EL4, respectively). The EG7 cells are EL4 cells which have been stably transfected with an expression plasmid encoding OVA.

OVA-specific cells (EG7) = test: Anti-OVA CTL response, 51Cr release cytolytic assay after immunization; type: in vivo; conditions: F1 (H-2d/b) mice; lysis of EG7 vs EL4; FIG. 4B
Description: as §1, §2

[1] = tested on: EL4 cells which had been pulsed with HBsAg; test: Anti-HBsAg CTL response in 'nonresponder' mice, 51Cr release assay; type: in vivo, 'nonresponder' mice (H-2^b C57BL/6); conditions: nonresponder C57BL/6 mice; splenocytes restimulated with HBsAg-pulsed RBL5 cells; FIG. 6A-G
Description: To produce the data shown in FIG. 6, several cytokines were loaded into HBsAg particles, following a protocol such as outlined above for OVA, with incubation carried out at 45° C. It was estimated that approximately 10 ng of cytokine was incorporated per μg of HBsAg particles (about 1% incorporation) at this temperature. Groups of ‘nonresponder’ mice (H-2^b C57BL/6) were immunized with HBsAg particles, with and without incorporated cytokines, or with cytokine alone (FIG. 6G), in the amounts shown below: • A: 1 μg ‘naked’ HBsAg particles • B–F: 1 μg HBsAg/cytokine, where the cytokine was: • (b) IL-12, (c) IFN-γ, (d) IL-2, (e) IL-4, • (f) IL-1 β peptide • G: 1 μg IL-12 (control) • H: 1 μg HBsAg/IL-12
After 12 days, splenocytes from the immunized mice were restimulated in vitro for 5 days with HBsAg-pulsed, syngeneic irradiated RBL5 lymphoma cells. For control experiment H, the splenocytes were restimulated with non-pulsed, syngeneic RBL5 cells. The splenocytes (effector cells) were then cocultured with ^51Cr-labeled target cells, and the CTL response was measured by a standard ^51Cr release assay. The target cells were either non-pulsed EL4 cells (open circles in FIGS. 6A–G), or EL4 cells which had been pulsed with HBsAg (solid circles).

Row | Molecule | anti-OVA humoral response (OVA) | anti-OVA CTL response (OVA-specific cells (EG7)) | anti-HBsAg CTL response [1]
1 | ovalbumin [OVA alone, native ovalbumin protein, model antigen] | elicited a humoral response | no CTL response and none | –
2 | IL-12 alone: cytokine IL-12 without HBsAg (control) (protein, UniProt P29459 23-219; P29460 23-328, looked up) Interleukin-12 subunit alpha: RNLPVATPDPGMFPCLHHSQNLLRAVSNMLQKARQTLEFYPCTSEEIDHEDITKDKTSTVEACLPLELTKNESCLNSRETSFITNGSCLASRKTSFMMALCLSSIYEDLKMYQVEFKTMNAKLLMDPKRQIFLDQNMLAVIDELMQALNFNSETVPQKSSLEEPDFYKTKIKLCILLHAFRIRAVTIDRVMSYLNAS Interleukin-12 subunit beta: IWELKKDVYVVELDWYPDAPGEMVVLTCDTPEEDGITWTLDQSSEVLGSGKTLTIQVKEFGDAGQYTCHKGGEVLSHSLLLLHKKEDGIWSTDILKDQKEPKNKTFLRCEAKNYSGRFTCWWLTTISTDLTFSVKSSRGSSDPQGVTCGAATLSAERVRGDNKEYEYSVECQEDSACPAAEESLPIEVMVDAVHKLKYENYTSSFFIRDIIKPDPPKNLQLKPLKNSRQVEVSWEYPDTWSTPHSYFSLTFCVQVQGKSKREKKDRVFTDKTSATVICRKNASISVRAQDRYYSSSWSEWASVPCS | – | – | no CTL response
